In patent publication US11446287B2, “Compounds and methods for EP300 or CBP modulation and indications therefor” (Opna Immuno-Oncology SA, priority 2019, dated 2022):

The compounds below were run against T1, Recombinant human CBP containing the bromodomain (CBP-BD (1043-1159)) (Homo sapiens, UniProt Q92793) (assay: CBP Alphascreen binding assay). Settings: read-out: CREBBP (CBP) IC50.
T1 construct: Recombinant human CBP bromodomain (CBP-BD (1043-1159)); made in house; host or cells: E. coli BL21-CodonPlus (DE3), modified pET vector
In short: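 Buffer: 50 mM HEPES pH 7.5, 50 mM NaCl, 0.01% BSA, 0.01% Triton X-100, 2 mM DTT. The signal was normalised to plate controls and fitted with a four-parameter curve to give IC50.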

T1 sequence (Q92793 1081-1197): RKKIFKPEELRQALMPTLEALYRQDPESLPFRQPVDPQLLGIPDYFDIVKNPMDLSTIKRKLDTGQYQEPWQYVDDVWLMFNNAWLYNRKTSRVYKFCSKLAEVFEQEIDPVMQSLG

Structure (SMILES)	IC50 [nM]
CCc1onc(C)c1-c1cnc2c(c1)c(-c1ccc(C(=O)O)cc1OC(F)(F)F)cn2C1CCOCC1 [P-0401, 4-(5-(5-ethyl-3-methylisoxazol-4-yl)-1-(tetrahydro-2H-pyran-4-yl)-1H-pyrrolo[2,3-b]pyridin-3-yl)-3-(trifluoromethoxy)benzoic acid]	0.1 to 1000
Cc1cc(C(=O)O)cc(OC(C)C)c1-c1cn(C2CCOCC2)c2ncc(-c3c(C)noc3C)cc12 [P-0402, 4-(5-(3,5-dimethylisoxazol-4-yl)-1-(tetrahydro-2H-pyran-4-yl)-1H-pyrrolo[2,3-b]pyridin-3-yl)-3-isopropoxy-5-methylbenzoic acid]	0.1 to 1000
Cc1noc(C)c1-c1cnc2c(c1)c(-c1ccc(C(=O)O)cc1OC(C)C)cn2C1(C)CCOCC1 [P-0403, 4-(5-(3,5-dimethylisoxazol-4-yl)-1-(4-methyltetrahydro-2H-pyran-4-yl)-1H-pyrrolo[2,3-b]pyridin-3-yl)-3-isopropoxybenzoic acid]	0.1 to 1000
Cc1noc(C)c1-c1cnc2c(c1)c(-c1c(Cl)cc(C(=O)O)cc1OC(C)C)cn2C1(C)CCOCC1 [P-0404, 3-chloro-4-(5-(3,5-dimethylisoxazol-4-yl)-1-(4-methyltetrahydro-2H-pyran-4-yl)-1H-pyrrolo[2,3-b]pyridin-3-yl)-5-isopropoxybenzoic acid]	0.1 to 1000
CCOc1nc(C(=O)O)ccc1-c1cn(C2(C)CCOCC2)c2ncc(-c3c(C)noc3C)cc12 [P-0405, 5-(5-(3,5-dimethylisoxazol-4-yl)-1-(4-methyltetrahydro-2H-pyran-4-yl)-1H-pyrrolo[2,3-b]pyridin-3-yl)-6-ethoxypicolinic acid]	0.1 to 1000
CCOc1nc(C(=O)O)c(Cl)cc1-c1cn([C@H]2CCOC2)c2ncc(-c3c(C)noc3C)cc12 [P-0406, (S)-3-chloro-5-(5-(3,5-dimethylisoxazol-4-yl)-1-(tetrahydrofuran-3-yl)-1H-pyrrolo[2,3-b]pyridin-3-yl)-6-ethoxypicolinic acid]	0.1 to 1000
Cc1noc(C)c1-c1cnc2c(c1)c(-c1ccc(C(=O)O)cc1OC(C)C)cn2C1(C)CCOC1 (stereo not shown) [P-0407, 4-(5-(3,5-dimethylisoxazol-4-yl)-1-(3-methyltetrahydrofuran-3-yl)-1H-pyrrolo[2,3-b]pyridin-3-yl)-3-isopropoxybenzoic acid]	0.1 to 1000
Cc1noc(C)c1-c1cnc2c(c1)c(-c1c(Cl)cc(C(=O)O)cc1OC(C)C)cn2C1(C)CCOC1 (stereo not shown) [P-0408, 3-chloro-4-(5-(3,5-dimethylisoxazol-4-yl)-1-(3-methyltetrahydrofuran-3-yl)-1H-pyrrolo[2,3-b]pyridin-3-yl)-5-isopropoxybenzoic acid]	0.1 to 1000
Cc1noc(C)c1-c1cnc2c(c1)c(-c1c(Cl)cc(C(=O)O)cc1OC1CC1)cn2-c1ncccc1C#N [P-0409, 3-chloro-4-(1-(3-cyanopyridin-2-yl)-5-(3,5-dimethylisoxazol-4-yl)-1H-pyrrolo[2,3-b]pyridin-3-yl)-5-cyclopropoxybenzoic acid]	0.1 to 1000
Cc1noc(C)c1-c1cnc2c(c1)c(-c1c(F)cc(C(=O)O)cc1OC1CCC1)cn2C1CCOCC1 [P-0410, 3-cyclobutoxy-4-(5-(3,5-dimethylisoxazol-4-yl)-1-(tetrahydro-2H-pyran-4-yl)-1H-pyrrolo[2,3-b]pyridin-3-yl)-5-fluorobenzoic acid]	0.1 to 1000
CCOc1nc(C(=O)O)cc(C)c1-c1cn(C2CCOCC2)c2ncc(-c3c(C)noc3C)cc12 [P-0411, 5-(5-(3,5-dimethylisoxazol-4-yl)-1-(tetrahydro-2H-pyran-4-yl)-1H-pyrrolo[2,3-b]pyridin-3-yl)-6-ethoxy-4-methylpicolinic acid]	0.1 to 1000
CCOc1nc(C(=O)O)cc(C)c1-c1cn(-c2ccc(F)cc2F)c2ncc(-c3c(C)noc3C)cc12 [P-0412, 5-(1-(2,4-difluorophenyl)-5-(3,5-dimethylisoxazol-4-yl)-1H-pyrrolo[2,3-b]pyridin-3-yl)-6-ethoxy-4-methylpicolinic acid]	0.1 to 1000
Cc1nnn(C)c1-c1cnc2c(c1)c(-c1ccc(C(=O)O)cc1OC1CC1)cn2C1CCOCC1 [P-0413, 3-cyclopropoxy-4-(5-(1,4-dimethyl-1H-1,2,3-triazol-5-yl)-1-(tetrahydro-2H-pyran-4-yl)-1H-pyrrolo[2,3-b]pyridin-3-yl)benzoic acid]	0.1 to 1000
CCOc1cc(C(=O)O)nc(OCC)c1-c1cn(-c2ccccc2F)c2ncc(-c3c(C)noc3C)cc12 [P-0414, 5-(5-(3,5-dimethylisoxazol-4-yl)-1-(2-fluorophenyl)-1H-pyrrolo[2,3-b]pyridin-3-yl)-4,6-diethoxypicolinic acid]	0.1 to 1000
CCOc1cc(C(=O)O)nc(OCC)c1-c1cn([C@@H](C)c2ccccn2)c2ncc(-c3c(C)noc3C)cc12 [P-0415, (S)-5-(5-(3,5-dimethylisoxazol-4-yl)-1-(1-(pyridin-2-yl)ethyl)-1H-pyrrolo[2,3-b]pyridin-3-yl)-4,6-diethoxypicolinic acid]	0.1 to 1000
CCOc1nc(C(=O)O)c(C)cc1-c1cn(C(C2CC2)C2CC2)c2ncc(-c3c(C)noc3C)cc12 [P-0416, 5-(1-(dicyclopropylmethyl)-5-(3,5-dimethylisoxazol-4-yl)-1H-pyrrolo[2,3-b]pyridin-3-yl)-6-ethoxy-3-methylpicolinic acid]	0.1 to 1000

Structure (SMILES)	IC50 [nM]
CCOc1nc(C(=O)O)cc(C)c1-c1cn(C(C2CC2)C2CC2)c2ncc(-c3c(C)noc3C)cc12 [P-0417, 5-(1-(dicyclopropylmethyl)-5-(3,5-dimethylisoxazol-4-yl)-1H-pyrrolo[2,3-b]pyridin-3-yl)-6-ethoxy-4-methylpicolinic acid]	0.1 to 1000
Cc1noc(C)c1-c1cnc2c(c1)c(-c1ccnc(C(=O)O)c1C)cn2C(C1CC1)C1CC1 [P-0418, 4-(1-(dicyclopropylmethyl)-5-(3,5-dimethylisoxazol-4-yl)-1H-pyrrolo[2,3-b]pyridin-3-yl)-3-methylpicolinic acid]	0.1 to 1000
Cc1noc(C)c1-c1cnc2c(c1)c(-c1ccnc(C(=O)O)c1C)cn2C1CCOCC1 [P-0419, 4-(5-(3,5-dimethylisoxazol-4-yl)-1-(tetrahydro-2H-pyran-4-yl)-1H-pyrrolo[2,3-b]pyridin-3-yl)-3-methylpicolinic acid]	0.1 to 1000
CCOc1cc(C(=O)O)nc(OCC)c1-c1cn(C(C2CC2)C2CC2)c2ncc(-c3c(C)noc3C)cc12 [P-0420, 5-(1-(dicyclopropylmethyl)-5-(3,5-dimethylisoxazol-4-yl)-1H-pyrrolo[2,3-b]pyridin-3-yl)-4,6-diethoxypicolinic acid]	0.1 to 1000
CCOc1cc(C(=O)O)nc(OCC)c1-c1cn(-c2ncccc2C#N)c2ncc(-c3c(C)noc3C)cc12 [P-0421, 5-(1-(3-cyanopyridin-2-yl)-5-(3,5-dimethylisoxazol-4-yl)-1H-pyrrolo[2,3-b]pyridin-3-yl)-4,6-diethoxypicolinic acid]	0.1 to 1000
CCOc1cc(C(=O)O)nc(OCC)c1-c1cn(-c2ncccc2C(N)=O)c2ncc(-c3c(C)noc3C)cc12 [P-0422, 5-(1-(3-carbamoylpyridin-2-yl)-5-(3,5-dimethylisoxazol-4-yl)-1H-pyrrolo[2,3-b]pyridin-3-yl)-4,6-diethoxypicolinic acid]	0.1 to 1000
CCOc1cc(C(=O)O)nc(OCC)c1-c1cn(-c2ccc(C#N)cc2F)c2ncc(-c3c(C)noc3C)cc12 [P-0423, 5-(1-(4-cyano-2-fluorophenyl)-5-(3,5-dimethylisoxazol-4-yl)-1H-pyrrolo[2,3-b]pyridin-3-yl)-4,6-diethoxypicolinic acid]	0.1 to 1000
CCOc1cc(C(=O)O)nc(OCC)c1-c1cn(-c2cnc(C3CC3)nc2)c2ncc(-c3c(C)noc3C)cc12 [P-0424, 5-(1-(2-cyclopropylpyrimidin-5-yl)-5-(3,5-dimethylisoxazol-4-yl)-1H-pyrrolo[2,3-b]pyridin-3-yl)-4,6-diethoxypicolinic acid]	0.1 to 1000
CCOc1cc(C(=O)O)nc(OCC)c1-c1cn(C2CCC(F)(F)CC2)c2ncc(-c3c(C)noc3C)cc12 [P-0425, 5-(1-(4,4-difluorocyclohexyl)-5-(3,5-dimethylisoxazol-4-yl)-1H-pyrrolo[2,3-b]pyridin-3-yl)-4,6-diethoxypicolinic acid]	0.1 to 1000
CCOc1cc(C(=O)O)ncc1-c1cn(C(C2CC2)C2CC2)c2ncc(-c3c(C)noc3C)cc12 [P-0427, 5-(1-(dicyclopropylmethyl)-5-(3,5-dimethylisoxazol-4-yl)-1H-pyrrolo[2,3-b]pyridin-3-yl)-4-ethoxypicolinic acid]	0.1 to 1000
CCOc1cc(C(=O)O)ncc1-c1cn(C2CCOCC2)c2ncc(-c3c(C)noc3C)cc12 [P-0428, 5-(5-(3,5-dimethylisoxazol-4-yl)-1-(tetrahydro-2H-pyran-4-yl)-1H-pyrrolo[2,3-b]pyridin-3-yl)-4-ethoxypicolinic acid]	0.1 to 1000
CCOc1cc(C(=O)O)nc(OCC)c1-c1cn(-c2cn(C(F)F)nc2C)c2ncc(-c3c(C)noc3C)cc12 [P-0429, 5-(1-(1-(difluoromethyl)-3-methyl-1H-pyrazol-4-yl)-5-(3,5-dimethylisoxazol-4-yl)-1H-pyrrolo[2,3-b]pyridin-3-yl)-4,6-diethoxypicolinic acid]	0.1 to 1000
CCOc1cc(C(=O)O)nc(OCC)c1-c1cn(-c2cn(CC)nc2C)c2ncc(-c3c(C)noc3C)cc12 [P-0430, 5-(5-(3,5-dimethylisoxazol-4-yl)-1-(1-ethyl-3-methyl-1H-pyrazol-4-yl)-1H-pyrrolo[2,3-b]pyridin-3-yl)-4,6-diethoxypicolinic acid]	0.1 to 1000
CCOc1cc(C(=O)O)nc(OCC)c1-n1cc(-c2ccc(F)cc2F)c2ncc(-c3c(C)noc3C)cc21 [P-0431, 5-(3-(2,4-difluorophenyl)-6-(3,5-dimethylisoxazol-4-yl)-1H-pyrrolo[3,2-b]pyridin-1-yl)-4,6-diethoxypicolinic acid]	0.1 to 1000
CCOc1cc(C(=O)OC)nc(OCC)c1-c1cn(-c2ccc(F)cc2F)c2ncc(-c3c(C)noc3C)cc12 [P-0432, methyl 5-(1-(2,4-difluorophenyl)-5-(3,5-dimethylisoxazol-4-yl)-1H-pyrrolo[2,3-b]pyridin-3-yl)-4,6-diethoxypicolinate]	0.1 to 1000
